Legend:
[1] = tested on: KPC cells, a murine PDAC cell line; experiment: Orthotopic KPC pancreatic cancer model in mice, dapansutrile diet (Example 1); type: in vivo, C57BL/6 male mice; conditions: dapansutrile diet 7.5 g/kg food ad libitum from surgery, sacrifice after 21 days, vs standard diet
Method: C57BL/6 male mice (8 weeks old) were purchased from Jackson Laboratories (Bar Harbor, ME). Mice were anesthetized and following opening the abdominal cavity, the tip of pancreatic tail was gently grasped, and the pancreas/spleen was externalized in a lateral direction, exposing the entire pancreatic body and spleen. 100,000 KPC cells, a murine PDAC cell line, were mixed 1:1 with Matrigel (VF=20 μl) and injected into the tail of the pancreas. The pancreas was then gently internalized with blunt forceps and the abdominal muscle layer, and the skin was closed separately with absorbable sutures.
Following the initial injections of KPC cells, tumor bearing mice were monitored daily until the sacrifice after 21 days. At sacrifice, tumor volume and weight were assessed in the vehicle (n=16) and OLT1177® (dapansutrile)-treated mice (n=16).
From the date of surgery, mice were treated with oral dapansutrile via feed pellets ad libitum. The composition of the food is the standard mouse chow enriched with 7.5 gr of dapansutrile per kilogram of food. […]
At sacrifice, tumor volume in different groups was calculated using the modified ellipsoidal formula V=(LW^2)/2, where L is the length of the longest tumor dimension parallel to the skin containing the tumor midpoint, W is the length of the tumor dimension perpendicular to L and parallel to the skin, and V is tumor volume in cubic millimeters (mm^3).

[2] = tested on: KPC cells, a murine PDAC cell line; experiment: Orthotopic KPC pancreatic cancer model in mice, dapansutrile and gemcitabine combination (Example 2); type: in vivo, C57BL/6 male mice; conditions: sacrifice after 21 days; gemcitabine 100 mg/kg i.p. every three days from day 10; dapansutrile diet; vs PBS vehicle (combination also vs monotherapies)
Method: Tumor-bearing mice were prepared according to Example 1 and monitored daily until the sacrifice after 21 days.
Mice treated with dapansutrile were fed with dapansutrile by the same protocol as described in Example 1.
Control mice received PBS
At sacrifice, tumor volume and tumor weight were assessed in the 4 groups of mice.

non-immune cells = experiment: Effect of dapansutrile on non-immune cell proliferation
COX2/PGE2 = experiment: Effect of dapansutrile on COX2/PGE2; conditions: immunosuppressive pathway in PDAC
NLRP3 inflammasome = NLRP3 inflammasome (Homo sapiens, UniProt Q96P20); conditions: cited from earlier work
Sequence of NLRP3 inflammasome (Q96P20 whole entry): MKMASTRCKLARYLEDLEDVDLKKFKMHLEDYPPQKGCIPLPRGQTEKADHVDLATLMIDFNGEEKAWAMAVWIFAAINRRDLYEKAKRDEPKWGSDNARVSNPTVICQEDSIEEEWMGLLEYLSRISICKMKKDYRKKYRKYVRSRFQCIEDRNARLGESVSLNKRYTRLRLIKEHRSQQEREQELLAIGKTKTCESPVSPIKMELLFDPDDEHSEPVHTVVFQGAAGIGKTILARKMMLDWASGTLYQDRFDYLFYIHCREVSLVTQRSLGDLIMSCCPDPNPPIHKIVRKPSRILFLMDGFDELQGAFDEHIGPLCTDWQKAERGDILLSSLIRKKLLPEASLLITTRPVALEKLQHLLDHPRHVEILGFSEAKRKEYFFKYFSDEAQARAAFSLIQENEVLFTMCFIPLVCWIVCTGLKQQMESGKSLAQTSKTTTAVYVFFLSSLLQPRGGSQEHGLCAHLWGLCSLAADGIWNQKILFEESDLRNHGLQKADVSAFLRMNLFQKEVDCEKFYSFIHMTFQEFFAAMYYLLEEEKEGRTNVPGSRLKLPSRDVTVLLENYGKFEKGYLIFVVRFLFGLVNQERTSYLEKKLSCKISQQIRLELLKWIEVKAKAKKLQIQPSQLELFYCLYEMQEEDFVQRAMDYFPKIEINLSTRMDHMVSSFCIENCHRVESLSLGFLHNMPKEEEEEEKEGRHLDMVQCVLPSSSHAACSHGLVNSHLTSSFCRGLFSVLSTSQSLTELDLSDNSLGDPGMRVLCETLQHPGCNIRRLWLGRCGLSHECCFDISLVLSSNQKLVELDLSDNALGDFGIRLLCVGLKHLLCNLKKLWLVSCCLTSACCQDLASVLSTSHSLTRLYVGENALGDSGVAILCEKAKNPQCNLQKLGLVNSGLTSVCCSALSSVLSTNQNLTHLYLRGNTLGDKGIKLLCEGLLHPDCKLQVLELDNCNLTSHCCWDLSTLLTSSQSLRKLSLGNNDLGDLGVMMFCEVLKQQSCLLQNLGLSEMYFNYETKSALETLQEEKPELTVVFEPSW

[3] = healthy subjects, oral; cited from earlier work

SMILES | tumor volume ([1]; p<0.0001) | tumor weight ([1]; p<0.01) | tumor volume [2] | tumor weight [2] | non-immune cells proliferation (non-immune cells) | COX2/PGE2 (COX2/PGE2) | inhibition of the NLRP3 inflammasome (NLRP3 inflammasome) | safety when orally administered [3]
CS(=O)(=O)CCC#N [dapansutrile, 3-methanesulfonyl-propionitrile] | reduced tumor volume | reduced tumor weight | significant reduction | significant reduction | no effect | significant reduction | selectively inhibit | safe
Nc1ccn([C@@H]2O[C@H](CO)[C@@H](O)C2(F)F)c(=O)n1 [gemcitabine, Gemcitabine, reference compound] | – | – | – | significant reduction | – | – | – | –
